Where “and” joins values, the source holds several entries; their conditions need not be identical. Identical values can stand only once. Marks after values point to notes of the source that are not given here.
What was measured:
[1] = test system: patients with chronic intestinal pseudo-obstruction; conditions: prucalopride 2 mg, 12-week periods, cited from earlier work
Prp-SCA7-92Q mice = test: Body weight and tolerability in Prp-SCA7-92Q mice; type: in vivo; conditions: 1 and 3 mg/kg, 5 weeks of treatment
Text: A normal control (NC) group of untreated wild-type mice was also examined. No significant differences were noticed between groups (FIG. 13).

[2] = test system: subjects with idiopathic Chronic Intestinal Pseudo-Obstruction (CIPO); conditions: in vivo
Text: Visits where assessed at the beginning of the screening period (Visit 1), at the beginning and at the end of each period of treatment (Visit 2 to Visit 9) and at the end of the follow-up period (Visit 10).
PLA=matching placebo once daily for 4 weeks.
Gastrointestinal symptom severity (abdominal pain, bloating, nausea and vomiting) and bowel habit (weekly recall) were registered on Day −1 and weekly after randomization, during both treatment and washout periods, as appropriate according to the Schedule of Assessments using an e-diary until end of follow up period.
Subjects were instructed to take three capsules of medication orally, once daily at approximately the same time each morning, on an empty stomach, with water.
The Primary efficacy endpoints was to evaluate the change in weekly global gastrointestinal symptoms average index score (WGGSAIS) from start to the end of each treatment period.
The WGGSAIS was obtained by averaging the scores for each of the 4 symptoms assessed weekly: abdominal pain, bloating, nausea and vomiting, with lower scores representing better health. If at least 2 symptoms were assessed, the average score was calculated, otherwise, it was considered missing.
Change between the end of treatment and pre-treatment WGGSAIS value≤−1 point was computed and considered a “success” while changes >−1 were considered a “failure”. The proportion of subjects with a 1-point improvement in WGGSAIS is summarized by treatment sequence, period and timepoint (weekly evaluation by e Diary.
Considering the evaluable pairs, the proportions of pairs of observations with 1-point improvement in WGGSAIS is summarized by treatment and timepoint. […]
Considering the evaluable pairs, the number of pseudo-obstruction episodes occurring within each treatment period and number of pseudo-obstruction episodes occurring within wash-out/follow up was considered as categorical variables classified as 0, 1, 2 and >2 and are summarized by treatment.
The same descriptive analyses described above are repeated focusing on change from the end of each treatment period to the end of each week of washout period or follow-up period instead of the change between post-treatment and pre-treatment.

[3] = test system: subjects with idiopathic Chronic Intestinal Pseudo-Obstruction (CIPO)
Experimental: Safety was assessed at each visit measuring and evaluating changes from the baseline of the following parameters: • Vital signs (including blood pressure, pulse, temperature). • Physical examination also including height and weight. • Routine laboratory parameters (hematocrit, hemoglobin, red blood cell count, white blood cell count with differential count and platelet count for hematology; glycaemia, total cholesterol, triglycerides, serum creatinine, urea or blood urea nitrogen [BUN], sodium, potassium, chloride, AST, ALT, Gamma-GT, alkaline phosphatase, total and fractioned bilirubin (direct and indirect), erythrocyte sedimentation rate, PT (or INR), aPTT for biochemistry; specific gravity, pH, protein, glucose, ketones, hemoglobin, nitrite, bilirubin, urobilinogen and microscopic examination for urinalysis). • Triplicate ECG • Adverse events (AEs). • Withdrawal from study due to AEs.
Adverse events starting on or after the first intake of investigational product were considered treatment-emergent AEs (TEAEs). Verbatim terms for AEs were coded using the most current version of Medical Dictionary for Regulatory Activities (MedDRA) coding. […]

[4] = test system: Prp-SCA7-92Q transgenic mice; test: Morphometric gut evaluation (HE histological score) in Prp-SCA7-92Q transgenic mice; type: in vivo; conditions: Prp-SCA7-92Q mice
Experimental: After mice were sacrificed by CO2 inhalation, the small intestine and colon tissue were cut, fixed for 48 hours with 10% neutral buffered formalin. The paraffin sample was prepared by dehydration with a series of gradient alcohol solutions according to standard methods known in the field. Tissues were cut into 4 μm sections by rotary microtome and baked for 2 hours at 60° C. After (HE) hematoxylin-eosin (HE) images were obtained from each animal at 20× magnification for histological analyses by fully automatic digital pathology slide-system (KF BIO, KF-PRO-005, China) using K-viewer Imaging software (KF BiO, V1, China).
The presence of inflammation and ulcers was quantified using indicators (i.e. ulcers=% area with intestinal mucosal damage, inflammation=necrosis, bleeding) to which a score from 0 to 3 was associated. Inflammation and ulcers scoring were awarded after section evaluation and analysis.

COCCCN1CCC(NC(=O)c2cc(Cl)c(N)c3c2OCC3)CC1 [prucalopride]
stool frequency and consistency [1]: did not affect
patients with significantly improved bloating ([1]; four completers): four
patients with significantly improved nausea ([1]; four completers): two
patients with significantly improved pain ([1]; four completers): three of four patients
patients with significantly improved vomiting ([1]; four completers): one

CC(C)n1c(=O)c(C(=O)N[C@H]2C[C@H]3CC[C@@H](C2)N3C[C@@H](O)CN(C)S(C)(=O)=O)cc2ccccc21 [velusetrag, 1-isopropyl-2-oxo-1,2-dihydroquinoline-3-carboxylic acid {(1S,3R,5R)-8-[(R)-2-hydroxy-3-(methanesulfonyl-methyl-amino)propyl]-8-azabicyclo[3.2.1]oct-3-yl}amide]
tolerability: body weight and lethality throughout treatment (Prp-SCA7-92Q mice): no reduction in body weight and lethality was observed
WGGSAIS total score, mean change from end of treatment at the end of wash-out [2]: 0.54±0.736
WGGSAIS, mean [2]: 1.707 and 1.608 and 1.367 and 1.458
WGGSAIS, mean change from pre-treatment to end of treatment [2]: −0.529±0.7956
WGGSAIS, mean difference between treatments (velusetrag minus placebo) [2]: −0.342+0.9343
total TEAEs classified as velusetrag emergent ([3]; Safety Set (placebo emergent 38)): 29
subjects with TEAEs classified as velusetrag emergent, % ([3]; Safety Set, 17 subjects (placebo emergent 58.82%)): 41.18%
Inflammation (count of necrosis) score, DSI ([4]; 1 mg/kg po once daily 5 weeks): 1.6 ± 0.1
Inflammation (count of necrosis) score, Proximal Colon ([4]; 1 mg/kg po once daily 5 weeks): 1.5 ± 0.1
Total score, DSI ([4]; 1 mg/kg po once daily 5 weeks): 2.4 ± 0.1
Total score, Proximal Colon ([4]; 1 mg/kg po once daily 5 weeks): 2.4 ± 0.1
Ulcers (mucosal damage) score, DSI ([4]; 1 mg/kg po once daily 5 weeks): 0.8 ± 0.1^∘
Ulcers (mucosal damage) score, Proximal Colon ([4]; 1 mg/kg po once daily 5 weeks): 0.9 ± 0.05
Inflammation (count of necrosis) score, DSI ([4]; 3 mg/kg po once daily 5 weeks): 1.2 ± 0.1*^∘∘∘
Inflammation (count of necrosis) score, Proximal Colon ([4]; 3 mg/kg po once daily 5 weeks): 1.1 ± 0.1*^∘∘∘
Total score, DSI ([4]; 3 mg/kg po once daily 5 weeks): 1.8 ± 0.1**^∘
Total score, Proximal Colon ([4]; 3 mg/kg po once daily 5 weeks): 1.5 ± 0.1*^∘∘∘
Ulcers (mucosal damage) score, DSI ([4]; 3 mg/kg po once daily 5 weeks): 0.6 ± 0.1^∘
Ulcers (mucosal damage) score, Proximal Colon ([4]; 3 mg/kg po once daily 5 weeks): 0.4 ± 0.01^∘∘

— US20260124194A1 (priority 2022, published 2026)
